This note sets out measurements from patent publication US12447121B2, “Composition for promoting the skin microbiome” (BEIERSDORF AG, priority 2020, dated 2025).

In experiment [1] the test system is S. epidermidis. In words: In vitro growth assay (OD, absorption at 600 nm). Format: cell-based. Conditions: CASO deficiency medium. The procedure: Overnight cultures of S. epidermidis were inoculated in 20 ml CASO medium and incubated at 37° C. The culture was then diluted and adjusted to an OD600 of 0.25. From this suspension, the starting culture is prepared with a concentration of 5×10^5 CFU/ml by a 1:200 dilution in CASO deficiency medium. Subsequently, solutions containing the different nitrogen, carbon, and lipid sources were mixed with the start cultures and 200 μl/well were pipetted into a 96 well flat transparent plate, at least in triplets. The plate was placed in a Tecan Reader at 37° C. and Absorption was measured at 600 nm every hour over a period of 24-30 h.

Experiment [2] concerns S. epidermidis. The experiment in a line: In vitro growth assay (plating, colony count). Format: cell-based. Conditions: added to low nutrient medium, 37° C., plated and counted; FIGS. 1 and 2. On the procedure: Potential growth-enhancing compounds that are effective in the stabilization of the microbiome were tested by the following in vitro assay. Overnight cultures of S. epidermidis is inoculated in 20 ml CASO medium and incubated at 37° C. The culture was then diluted and adjusted to an OD600 of 0.25. From this suspension, the starting culture is prepared with a concentration of 5×10^5 CFU/ml by a 1:200 dilution in CASO deficiency medium. Subsequently, solutions containing the different active ingredients were mixed with the start cultures and incubated in a thermal mixer at 37° C. by shaking. Samples are taken at the respective time points for testing, diluted with NaCl and plated out on CASO plates using the spiral plater. The plates are incubated for 24 h at 37° C. and then counted.

In the next experiment the test system is skin microbiome. In words: In vivo volunteer study: microbial colony count of skin microbiome samples. The arrangement: species or system human. Conditions: applied in the form of a skin care composition to the facial skin (as worded in the summary). The procedure: An in vivo study with 31 volunteers was conducted to examine whether the growth-enhancing compounds that were found effective in the in vitro test can also promote cell growth of the microorganisms in the skin microbiome in vivo when applied to the skin in the form of a lotion. For this purpose, a carrier lotion was prepared to which the test compounds, i.e. the compounds identified as growth-enhancing in the in vitro assays of Example 1, were added. The test formulations were prepared by mixing the compounds to be tested into the carrier lotion. The test formulations were composed as follows: • Formulation 20: […] Carrier lotion+1% urea, 1% sodium Lactate, 1% caprylic/capric triglycerides […] For measuring the microbial colony count, the test site was rinsed with swabs ([…] GmbH, […], Germany) by 3×10 lanes using 2 ml rinsing buffer (12.49 g/L Na2HPO; 0.63 g/L KH2PO4 in molecular grade H2O) in 15 ml Falcon tubes. The sample material was then plated within 60 minutes after collection on Columbia-Sheep-Blood-Tween (COST) agar plates and subsequently incubated. […] After incubation, the bacterial colonies on agar plates were counted using the Countermat Flash.

“Also recorded” adds a separate entry of the source.

Consider `OC[C@H]1O[C@H](O[C@H]2[C@H](O)[C@@H](O)C(O)O[C@@H]2CO)[C@H](O)[C@@H](O)[C@@H]1O` (mixture of isomers) [Maltose, maltose], for which the “growth of S. epidermidis (summary in words of Tables 2 and 3)” value in the experiment on S. epidermidis [1] is “support the growth”.
Still for that read-out and setting: in the case of `O=C(CO)[C@@H](O)[C@H](O)[C@H](O)CO` [Fructose, fructose] it was “support the growth”.
For the compound `CC(O)C(=O)O` (centres unmarked) [Lactate, lactate], the “growth of S. epidermidis within 24 hours” value in the experiment on S. epidermidis [2] is “significant growth; also recorded: significantly promotes the growth”. The “growth of S. epidermidis (summary in words of Tables 2 and 3)” value in the experiment on S. epidermidis [1] was “support the growth”.
Turning to `OC[C@H]1O[C@@](CO)(O[C@H]2O[C@H](CO)[C@@H](O)[C@H](O)[C@H]2O)[C@@H](O)[C@@H]1O` [Sucrose, saccharose], in the experiment with S. epidermidis [1], the “growth of S. epidermidis (summary in words of Tables 2 and 3)” value is “support the growth”.
Regarding `CC(O)C(=O)O` (centres unmarked) [lactic acid], the “cell number of the resident bacteria” value in the experiment on skin microbiome is listed as “increase”.
On the same count and under the same terms, in the case of `CC(=O)C(=O)O` [pyruvic acid] it was “significantly increase”.
In the case of maltodextrin, the “growth of S. epidermidis (summary in words of Tables 2 and 3)” value in the experiment on S. epidermidis [1] is “support the growth”.
